Assay [1] has as its system AOM-DSS-induced colorectal cancer. The assay can be described thus: Histopathological observation (H & E) of colon tissue of AOM-DSS mice. Format: in vivo, mouse. Conditions: group 4 (SeMet pretreatment + AOM-DSS) compared to group 3 (AOM-DSS alone). How it is done:
(§1) Each of the colons extracted from the mice in Example 1 was fixed in 10% formalin, and then embedded in paraffin to make FFPE (paraffin-embedded) samples. Each of the FFPE samples was sectioned to a thickness of 10 μm and mounted on micro-slides (MUTO-GLASS, Japan), followed by drying at 37° C. overnight. Then, the paraffin sections were deparaffinized with xylene and concentration gradient alcohol. The deparaffinized tissue sections were stained with hematoxylin and eosin (H & E) (Sigma Aldrich) and an antibody (MOG-100P, JaICA) of 8-OHdG (8-hydroxy-2′-deoxyguanosine) known as an oxidative stress marker.

The test system of assay [2] is PNP (purine nucleoside phosphorylase). The assay can be described thus: Immunohistochemical analysis of colon tissue: PNP. It counts as in vivo, mouse. Conditions: immunohistochemistry. The protocol: (§2) Immunohistochemical analysis of the PHB, PNP, ANXA2 and CRP markers determined in Example 4 for the colon tissue samples obtained from groups 1 to 4 in Example 1 was performed.
(§3) Specifically, the colon paraffin sections obtained from the mice of groups 1 to 4 in […] were deparaffinized and rehydrated. In addition, endogenous peroxidases were quenched with methanol containing 0.3% H2O2 for 20 minutes. The sections were incubated with the primary antibodies anti-prohibitin (H-80) (sc-28259, Santa Cruz Biotechnology), anti-PNP (sc-135163, Santa Cruz Biotechnology), anti-CRP (H-90) (sc-30047, Santa Cruz Biotechnology), anti-annexin II (H-50) (sc-9061, Santa Cruz Biotechnology) and anti-8-OhdG (MOG-100P, JaICA) at 4° C. overnight. Then, the sections were incubated with biotin-conjugated secondary antibodies corresponding to the primary antibodies for 30 minutes, after which the sections were washed with PBS and incubated with streptavidin horseradish peroxidase (Vector Labs) for 30 minutes. The sections were washed with PBS, and then incubated with a DAB (3,3′-diaminobenzidine) substrate solution containing 1.8×10^−3% (v/v) of H2O2 for 10 minutes. […] The degree of staining of each of the markers in tumor cells developed in the stained tissues of each group was measured according to the method described in “Charafe-Jauffret, E., et al. (2004). […]

Assay [3] has as its system 8-OHdG (8-hydroxy-2'-deoxyguanosine). The assay can be described thus: 8-OHdG oxidative stress marker staining of colon tissue. Particulars: group pretreated with SeMet and treated with AOM-DSS compared to group treated with AOM-DSS. Format: in vivo, mouse. How it is done:
as §1

A further assay concerns ANXA2 (annexin A2). The assay can be described thus: Immunohistochemical analysis of colon tissue: ANXA2. It counts as in vivo, mouse. How it is done:
as §2, §3

A further assay deals with PHB (prohibitin). The assay can be described thus: Immunohistochemical analysis of colon tissue: PHB. It counts as in vivo, mouse. Particulars: immunohistochemistry. How it is done:
as §2, §3

For another assay, the system named is AOM-DSS mouse model. It counts as in vivo. Conditions: group 4 (15 ppm SeMet pretreatment + AOM-DSS) compared to group 3 (AOM-DSS). The protocol:
In order to examine the chemopreventive activity of SeMet (selenomethionine) against the development of colorectal cancer, the frequency and size of colon polyps in an inflammation-related colorectal cancer-induced mouse model according to the intake of SeMet (selenomethionine) were examined.
Specifically, an experiment was performed using forty eight 5-week-old ICR male mice (Lab Animal, Korea) divided into the following groups: group 1: treated with neither SeMet (selenomethionine) nor AOM-DSS; group 2: treated with 15 ppm SeMet (selenomethionine) (Pharma Se Inc, USA); group 3: treated with AOM-DSS; and group 4: pretreated with 15 ppm SeMet (selenomethionine) and then treated with AOM-DSS (FIGS. 1A and 1B).
AOM (azoxymethane) (Sigma-Aldrich Co, USA) that is a colorectal cancer-inducing substance was injected intraperitoneally (i.p.) into the mice at a dose of 10 mg/kg, and 1.5% (w/v) of dextran sodium sulfate (DSS) (MP Biomedicals, LLC, USA) that is a colitis-inducing substance was allowed to drink for one week after injection of AOM.
The mice of the four groups were euthanized with CO2 gas when reached 22 weeks of age, and the colons were extracted and observed.

In the next assay the test system is colon tissues. The assay can be described thus: 2-DE and nano-HPLC-ESI-QIT-MS proteomics of colon tissue. Format: in vivo, mouse. Particulars: group 4 vs group 3. How it is done: In order to investigate the molecular target of SeMet (selenomethionine) having chemopreventive activity against colorectal cancer, the colon tissue samples obtained from the mice of groups 1 to 4 in Example 1 were analyzed using a 2-DE (2-dimensional electrophoresis) method.
Specifically, the colon tissues (excluding polyps) obtained from group 1 treated neither with SeMet (selenomethionine) nor AOM-DSS, group 2 treated with 15 ppm SeMet (selenomethionine) (Pharma Se Inc, USA), group 3 treated with AOM-DSS and group 4 treated with AOM-DSS after pretreatment with 15 ppm SeMet (selenomethionine) were washed with homogenization buffer A (50 mM Tris-HCl (pH7.5), 2 mM EDTA, 150 mM NaCl and 0.5 mM DTT) and then cut to small pieces. The pieces were homogenized in buffer (50 mM Tris-HCl (pH 7.5), 0.25 M sucrose, 5 mM magnesium acetate, 0.2 mM EDTA and 0.5 mM DTT) supplemented with Halt™ protease inhibitor cocktail (Thermo Fisher Scientific, Rockford, Ill.) on ice using a grinding kit (GE Healthcare Life Science, Uppsala, Sweden). Then, the solution was centrifuged at 13,000 rpm at 4° C. for 30 minutes, and 10% trichloroacetic acid was added to the supernatant to precipitate proteins. The collected precipitate was dissolved in rehydration buffer (8 M urea, 2% CHAPS, 50 mM DTT and 0.2% IPG buffer), and then, in order to perform 2D gel electrophoresis, the concentration of the proteins was adjusted with a BCA protein analysis kit (Thermo Fisher Scientific), and 200 μg of each protein was separated with Immobiline Dry Strip (pH 4-7, 18 cm, GE healthcare). 2D separation was performed on 12% acrylamide gel in Ettan Dalt II system (10 mA/gel; 1 hr, 40 mA/gel; >6 hr) (GE Healthcare Life Science, Uppsala, Sweden) for 7 hours. Then, the gel having proteins separated thereon stained using silver staining technology, after which the image of the gel was analyzed using Progenesis SameSpots software (version. 4.1, Nonlinear Dynamics, Newcastle, UK), and spots on the gel were detected. In analysis of the gel image, the gel was automatically aligned by measurement of alignment vectors using an analysis wizard, and master images of the experimental groups were made using Progenesis SameSpots software. The master images were used to normalize and quantify the spot volume and to analyze the proteins showing a difference in expression between the groups.
In order to investigate the molecular target of SeMet (selenomethionine) having chemopreventive activity against colorectal cancer, the colon tissue samples obtained from groups 1 to 4 in Example 1 were analyzed by mass spectrometry.
The cut spots were treated with trypsin, and protein identification was performed using a nano LC/MS system composed of a Surveyor HPLC system (Thermo Scientific, Waltham, Mass.) equipped with a nano-ESI source and an electrospray ionization (ESI)-quadrupole ion trap (QIT) mass spectrometer (LCQ Deca XP-Plus, Thermo Finnigan, San Jose, Calif., USA). In order to desalt and concentrate 10 μl of trypsin peptides, the peptide was loaded into a C18 trap column (i.d. 300 μm, length 5 mm, particle size 5 μm; LC Packings, Amsterdam, Netherlands) through an auto sampler at a flow rate of 20 μl/min. Then, the trapped peptides were allowed to flow backward and separated in a C18 reversed-phase capillary column (75 μm silica tube, length 150 mm, particle size 5 μm). The pump flow rate was split 1:100 for a column flow rate of […]. Mobile phase A was a solution of a mixture of 0.5% acetic acid and 0.02% formic acid in water, and mobile phase B was a solution of a mixture of 0.5% acetic acid and 0.02% formic acid in 80% acetonitrile. The samples were injected into the column and eluted by mobile phase B at a concentration gradient of 5-5 20 50 60 80 100% for 0-15-18-50-55-60-62 minutes, respectively. MS and MS/MS spectra were obtained using a capillary tube (temperature: 220° C., ESI voltage: 2.5 kV, and collision energy: 35%). […]

Assay [4] concerns AOM-induced premalignant lesions. Particulars: AOM-DSS mouse models (Baines 2000); cited from earlier work.
Another assay concerns CRP (C-reactive protein). The assay can be described thus: Immunohistochemical analysis of colon tissue: CRP. Format: in vivo, mouse. The protocol:
as §2, §3

The next assay relates to CRC. Conditions: patients who take selenium (Marshall 2008); cited from earlier work.
[5] abbreviates: administration of SeMet alone (group 2).
The mark [6] stands for this setting: group 4 (SeMet pretreatment + AOM-DSS) vs AOM-DSS-induced colorectal cancer tissue.
The mark [7] stands for this setting: pretreatment with SeMet + AOM-DSS vs colorectal cancer development, immunohistochemistry.

With `C[Se]CC[C@H](N)C(=O)O` [SeMet, selenomethionine], the “dysplasia and neoplastic lesions” value in assay [1] is listed as “decreases”. For the same compound, the “expression of PNP” value in [2] (setting [5]) is on record as “increased”; in assay [2] (setting [6]) it was “increased again”. The “8-OHdG in colon tissue” value in [3] is recorded as “decreased”. The “expression of ANXA2” value in the assay on ANXA2 (annexin A2) (SeMet administered alone) was “did not change”; in the assay with ANXA2 (annexin A2) (setting [7]) it was “decreased”. In addition, the “expression of PHB” value with PHB (prohibitin) (setting [5]) was “increased”; in the assay on PHB (prohibitin) (setting [6]) it was “increased again”. The “polyps in the colon” value in the assay with AOM-DSS mouse model was “significantly decreased”. For the same compound, the “Expression in SeMet/AOM-DSS” value is “Decreased” in the assay on colon tissues (Alcohol dehydrogenase (Akr1a4), spot 50); “Decreased” in the assay with colon tissues (Aldose reductase (Akr1b3), spot 49); “Decreased” with colon tissues (Annexin 1 (Anxa1), spot 51); “Decreased” in the assay with colon tissues (Annexin 2 (Anxa2), spot 48); “Increased” in the assay on colon tissues (Annexin 3 (Anxa3), spot 40); “Increased” in the assay on colon tissues (Annexin 7 (Anxa7), spot 57). In addition, the “Expression in SeMet/AOM-DSS” value is reported as “Increased” in the assay with colon tissues (Beta-actin (Actb), spot 39); “Decreased” in the assay with colon tissues (C-reactive protein (Crp1), spot 14); “Decreased” with colon tissues (Cofilin 1 (Cfl1), spot 4); “Decreased” in the assay on colon tissues (Cofilin 2 (Cfl2), spot 4); “Decreased” with colon tissues (Destrin (Dstn), spot 5); “Increased” in the assay on colon tissues (Eukaryotic translation initiation 5A (Eif5a), spot 10). In addition, the “Expression in SeMet/AOM-DSS” value is given as “Decreased” in the assay on colon tissues (Glutathione transferase omega 1 (Gsto1), spot 25); “Decreased” with colon tissues (Hypoxanthine-guanine phosphoribosyltransferase 1 (Hprt1), spot 29); “Increased” in the assay on colon tissues (Inorganic pyrophosphatase 1 (Ppa1), spot 38); “Increased” in the assay on colon tissues (Isoform 1 of Isocitrate dehydrogenase [NAD] subunit alpha (Idh3a), spot 41); “Decreased” with colon tissues (Isoform 1 of Tropomyosin alpha-1 chain (Tpm1), spot 43); “Decreased” in the assay on colon tissues (L-lactate dehydrogenase A chain (Ldha), spot 47). In addition, the “Expression in SeMet/AOM-DSS” value with colon tissues (Nucleoside diphosphate kinase B (Nme2), spot 8) is “Decreased”; in the assay on colon tissues (Peroxiredoxin 1 (Prdx1), spot 16, 21), “Decreased”; with colon tissues (Peroxiredoxin 4 (Prdx4), spot 16, 21) it was “Decreased”; in the assay with colon tissues (Phosphoglycerate mutase 2 (Pgam2), spot 24) it was “Decreased”; in the assay with colon tissues (Prohibitin (Phb), spot 34) it was “Increased”; with colon tissues (Proteasome activator complex subunit 1 (Psme1), spot 32) it was “Increased”. For the same compound, the “Expression in SeMet/AOM-DSS” value is recorded as “Decreased” with colon tissues (Proteasome subunit beta type 1 precursor (Psmb1), spot 18); “Increased” in the assay on colon tissues (Purine nucleoside phosphorylase (Pnp), spot 33); “Decreased” in the assay on colon tissues (S-formylglutathione hydrolase (Esd), spot 46); “Decreased” in the assay on colon tissues (Transaldolase (Taldo1), spot 52); “Decreased” in the assay with colon tissues (Triosephosphate isomerase 1 (Tpi1), spot 19, 23); “Decreased” in the assay with colon tissues (Ubiquinol cytochrome c reductase 1 (Uqcrfs1), spot 20). Moreover, in assay [4], the “development of AOM-induced premalignant lesions” value was “reduces”. The “expression of CRP” value is on record as “did not change” in the assay with CRP (C-reactive protein) (SeMet administered alone) and “decreased” with CRP (C-reactive protein) (setting [7]).
With `[Se]` [selenium], the “reduction of the risk of CRC” value in the assay with CRC is recorded as “about 50%”.

The record behind these values is US20140377773A1, “Detection Marker for Anticancer Effects by Selenomethionine as an Inhibitor of Environmental Toxicity” (Dongguk University Industry-Academic Cooperation Foundation, priority 2013, published 2014).
